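Cultured in 96-well plates, cells were exposed to test compound for 48 hours across five concentrations. Abbreviation: GI50, concentration required for 50% inhibition of growth. TGI is the concentration that stops growth completely.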
Legend:
Experiment in all cases: NCI-60 cell line screen, 48 h
T-47D breast = system: T-47D breast
RXF 393 renal = system: RXF 393 renal
K-562 leukemia = system: K-562 leukemia
NCI-H23 lung = system: NCI-H23 lung
OVCAR-8 ovarian = system: OVCAR-8 ovarian
SNB-75 CNS = system: SNB-75 CNS
U251 CNS = system: U251 CNS
HT29 colon = system: HT29 colon
UACC-257 melanoma = system: UACC-257 melanoma
EKVX NSCLC = system: EKVX NSCLC
SK-MEL-2 melanoma = system: SK-MEL-2 melanoma
RPMI-8226 leukemia = system: RPMI-8226 leukemia
HS 578T breast = system: HS 578T breast
HOP-92 NSCLC = system: HOP-92 NSCLC
PC-3 prostate = system: PC-3 prostate
HOP-62 NSCLC = system: HOP-62 NSCLC
SN12C renal = system: SN12C renal
ACHN renal = system: ACHN renal
HCT-15 colon = system: HCT-15 colon
M14 melanoma = system: M14 melanoma
SF-268 CNS = system: SF-268 CNS
NCI-H460 lung = system: NCI-H460 lung
UACC-62 melanoma = system: UACC-62 melanoma
A549 NSCLC = system: A549 NSCLC
TK-10 renal = system: TK-10 renal
NCI-H522 lung = system: NCI-H522 lung
MDA-MB-435 = system: MDA-MB-435
HCC-2998 colon = system: HCC-2998 colon
SK-MEL-28 melanoma = system: SK-MEL-28 melanoma
SK-MEL-5 melanoma = system: SK-MEL-5 melanoma
MOLT-4 leukemia = system: MOLT-4 leukemia
SK-OV-3 ovarian = system: SK-OV-3 ovarian
SW-620 colon = system: SW-620 colon
LOX IMVI melanoma = system: LOX IMVI melanoma
HCT-116 colon = system: HCT-116 colon
SF-295 CNS = system: SF-295 CNS
UO-31 renal = system: UO-31 renal
MDA-MB-231 breast = system: MDA-MB-231 breast
786-0 renal = system: 786-0 renal
MCF7 breast = system: MCF7 breast
SR leukemia = system: SR leukemia
CCRF-CEM leukemia = system: CCRF-CEM leukemia
MALME-3M melanoma = system: MALME-3M melanoma
OVCAR-4 ovarian = system: OVCAR-4 ovarian
SF-539 CNS = system: SF-539 CNS
NCI-H226 lung = system: NCI-H226 lung
NCI/ADR-RES ovarian = system: NCI/ADR-RES ovarian
CAKI-1 renal = system: CAKI-1 renal
COLO 205 colon = system: COLO 205 colon
A498 renal = system: A498 renal
OVCAR-5 ovarian = system: OVCAR-5 ovarian
DU-145 prostate = system: DU-145 prostate
SNB-19 CNS = system: SNB-19 CNS

SMILES: N#Cc1c(-c2ccccc2)cc(-c2ccccc2)n(CC(=O)NO)c1=O
- GI50 (T-47D breast): 1.41 µM
- TGI (T-47D breast): 6.88 µM
- GI50 (RXF 393 renal): 1.61 µM
- TGI (RXF 393 renal): 5.92 µM
- GI50 (K-562 leukemia): 1.8 µM
- TGI (K-562 leukemia): 4.67 µM
- GI50 (NCI-H23 lung): 3.58 µM
- TGI (NCI-H23 lung): 81.4 µM
- GI50 (OVCAR-8 ovarian): 8.02 µM
- TGI (OVCAR-8 ovarian): > 100 µM
- GI50 (SNB-75 CNS): 1.61 µM
- TGI (SNB-75 CNS): 6.36 µM
- GI50 (U251 CNS): 4.91 µM
- TGI (U251 CNS): 86.3 µM
- GI50 (HT29 colon): 3.07 µM
- TGI (HT29 colon): 12.2 µM
- GI50 (UACC-257 melanoma): 10.8 µM
- TGI (UACC-257 melanoma): 37.4 µM
- GI50 (EKVX NSCLC): 3.45 µM
- TGI (EKVX NSCLC): 97 µM
- GI50 (SK-MEL-2 melanoma): 2.85 µM
- TGI (SK-MEL-2 melanoma): 9.13 µM
- GI50 (RPMI-8226 leukemia): 1.35 µM
- TGI (RPMI-8226 leukemia): 4.77 µM
- GI50 (HS 578T breast): 2 µM
- TGI (HS 578T breast): 7.15 µM
- GI50 (HOP-92 NSCLC): 2.15 µM
- TGI (HOP-92 NSCLC): 8.17 µM
- GI50 (PC-3 prostate): 2.25 µM
- TGI (PC-3 prostate): 14 µM
- GI50 (HOP-62 NSCLC): 6.99 µM
- TGI (HOP-62 NSCLC): 58.3 µM
- GI50 (SN12C renal): 4.27 µM
- TGI (SN12C renal): > 100 µM
- GI50 (ACHN renal): 1.09 µM
- TGI (ACHN renal): > 100 µM
- GI50 (HCT-15 colon): 3.55 µM
- TGI (HCT-15 colon): 28.8 µM
- GI50 (M14 melanoma): 4.16 µM
- TGI (M14 melanoma): 19.1 µM
- GI50 (SF-268 CNS): 3.66 µM
- TGI (SF-268 CNS): 94.3 µM
- GI50 (NCI-H460 lung): 3.02 µM
- TGI (NCI-H460 lung): > 100 µM
- GI50 (UACC-62 melanoma): 2.25 µM
- TGI (UACC-62 melanoma): 6.01 µM
- GI50 (A549 NSCLC): 4.57 µM
- TGI (A549 NSCLC): > 100 µM
- GI50 (TK-10 renal): 5.92 µM
- TGI (TK-10 renal): > 100 µM
- GI50 (NCI-H522 lung): 0.427 µM
- TGI (NCI-H522 lung): 1.82 µM
- GI50 (MDA-MB-435): 3.03 µM
- TGI (MDA-MB-435): > 100 µM
- GI50 (HCC-2998 colon): 3.74 µM
- TGI (HCC-2998 colon): 20.9 µM
- GI50 (SK-MEL-28 melanoma): 6.7 µM
- TGI (SK-MEL-28 melanoma): 77.4 µM
- GI50 (SK-MEL-5 melanoma): 1.93 µM
- TGI (SK-MEL-5 melanoma): 4.71 µM
- GI50 (MOLT-4 leukemia): 1.7 µM
- TGI (MOLT-4 leukemia): 4.92 µM
- GI50 (SK-OV-3 ovarian): 6.24 µM
- TGI (SK-OV-3 ovarian): 53.5 µM
- GI50 (SW-620 colon): 8.87 µM
- TGI (SW-620 colon): > 100 µM
- GI50 (LOX IMVI melanoma): 0.176 µM
- TGI (LOX IMVI melanoma): 0.333 µM
- GI50 (HCT-116 colon): 2.57 µM
- TGI (HCT-116 colon): > 100 µM
- GI50 (SF-295 CNS): 7.47 µM
- TGI (SF-295 CNS): 33.8 µM
- GI50 (UO-31 renal): 1.84 µM
- TGI (UO-31 renal): 9.75 µM
- GI50 (MDA-MB-231 breast): 4.75 µM
- TGI (MDA-MB-231 breast): 68 µM
- GI50 (786-0 renal): 5.59 µM
- TGI (786-0 renal): 28 µM
- GI50 (MCF7 breast): 1.45 µM
- TGI (MCF7 breast): 3.82 µM
- GI50 (SR leukemia): 0.593 µM
- TGI (SR leukemia): 4.48 µM
- GI50 (CCRF-CEM leukemia): 0.491 µM
- TGI (CCRF-CEM leukemia): 3.07 µM
- GI50 (MALME-3M melanoma): 3 µM
- TGI (MALME-3M melanoma): 27.3 µM
- GI50 (OVCAR-4 ovarian): 3.53 µM
- TGI (OVCAR-4 ovarian): > 100 µM
- GI50 (SF-539 CNS): 3.83 µM
- TGI (SF-539 CNS): 25.7 µM
- GI50 (NCI-H226 lung): 13.7 µM
- TGI (NCI-H226 lung): 57.5 µM
- GI50 (NCI/ADR-RES ovarian): 3.41 µM
- TGI (NCI/ADR-RES ovarian): > 100 µM
- GI50 (CAKI-1 renal): 3.4 µM
- TGI (CAKI-1 renal): > 100 µM
- GI50 (COLO 205 colon): 5.62 µM
- TGI (COLO 205 colon): 72.3 µM
- GI50 (A498 renal): 2.17 µM
- TGI (A498 renal): 7.99 µM
- GI50 (OVCAR-5 ovarian): 11.1 µM
- TGI (OVCAR-5 ovarian): > 100 µM
- GI50 (DU-145 prostate): 6.37 µM
- TGI (DU-145 prostate): > 100 µM
- GI50 (SNB-19 CNS): 7.09 µM
- TGI (SNB-19 CNS): 73.3 µM

Reference: PubChem BioAssay (NCI)
